Measured values published in publication PMC8979346 (RSC Advances, 2022).

Key:
hCA IX = hCA IX (Homo sapiens, UniProt Q16790); assay: biochemical; details: for IC50: IC50 (μM) ± SEM CA IX, ± SEM
hCA II = hCA II (Homo sapiens, UniProt P00918); assay: Carbonic anhydrase II inhibition activity; format: biochemical
hCA XII = hCA XII (Homo sapiens, UniProt O43570); assay: Carbonic anhydrase XII inhibition activity; format: biochemical
Chain of hCA XII (O43570 25-354): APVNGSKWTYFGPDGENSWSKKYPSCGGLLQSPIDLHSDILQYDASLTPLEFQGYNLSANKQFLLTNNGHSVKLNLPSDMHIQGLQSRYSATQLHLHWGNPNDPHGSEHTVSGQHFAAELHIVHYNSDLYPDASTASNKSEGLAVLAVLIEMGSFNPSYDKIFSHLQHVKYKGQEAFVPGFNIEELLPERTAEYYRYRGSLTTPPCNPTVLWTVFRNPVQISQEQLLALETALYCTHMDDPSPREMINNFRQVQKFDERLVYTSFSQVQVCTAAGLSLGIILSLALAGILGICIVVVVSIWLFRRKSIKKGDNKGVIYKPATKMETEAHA

SMILES	IC50 (hCA IX; CA IX) [µM]	IC50 (hCA II) [nM]	IC50 (hCA XII) [nM]	also measured
Cc1ccc(S(=O)(=O)NC(c2ccccc2)c2ccccc2)cc1 [Compound 3g, N-Benzhydryl-4-methylbenzenesulfonamide]	0.78 ± 0.83	863 ± 540	1300 ± 780	–
Cc1ccc(S(=O)(=O)Nc2ccc(C)c(C)c2)cc1 [Compound 3j, N-(3,4-Dimethylphenyl)-4-methylbenzenesulfonamide]	0.62 ± 0.2	2500 ± 1500	1120 ± 1000	–
COc1ccc(S(=O)(=O)NNc2ccccc2)cc1 [Compound 3i, 4-Methoxy-N′-phenylbenzenesulfonohydrazide]	–	2760 ± 1100	–	% inhibition CA XII (hCA XII; CA XII, at 100 μM): 27%
COc1ccc(CCNS(=O)(=O)c2ccc(C)cc2)cc1OC [Compound 3l, N-(3,4-Dimethoxyphenethyl)-4-methylbenzenesulfonamide]	0.764 ± 0.54	–	1170 ± 1000	% inhibition CA II (hCA II; CA II, at 100 μM): 32%; inhibition at 100 µM (hCA II; read-out: % inhibition CA II, CA II, at 100 μM): < 50%
Cc1ccc(S(=O)(=O)Nc2ccccc2)cc1 [Compound 3a, 4-Methyl-N-phenylbenzenesulfonamide]	1.2 ± 0.75	1300 ± 510	–	–
COc1ccc(S(=O)(=O)Nc2ccccc2)cc1 [Compound 3k, 4-Methoxy-N-phenylbenzenesulfonamide]	–	1740 ± 540	1140 ± 370	–
COc1ccc(S(=O)(=O)NC(c2ccccc2)c2ccccc2)cc1 [Compound 3m, N-Benzhydryl-4-methoxybenzenesulfonamide]	–	507 ± 400	1400 ± 570	–

Continued, in another order:

IC50 (hCA IX; CA IX) [µM]	IC50 (hCA II) [nM]	IC50 (hCA XII) [nM]	SMILES	also measured
–	–	630 ± 140	CCN(CC)c1ccc(NS(=O)(=O)c2ccc(C)cc2)cc1 [Compound 3e, N-(4-(Diethylamino)phenyl)-4-methylbenzenesulfonamide]	% inhibition CA IX (hCA IX; CA IX, at 100 μM): 31%; inhibition at 100 µM (hCA IX; read-out: % inhibition CA IX, CA IX, at 100 μM): < 31%
1.65 ± 1.3	–	1030 ± 230	Cc1ccc(S(=O)(=O)Nc2cc(C)ccc2C)cc1 [Compound 3b, N-(2,5-Dimethylphenyl)-4-methylbenzenesulfonamide]	–
1.06 ± 0.63	1550 ± 800	700 ± 200	Cc1ccc(S(=O)(=O)Nc2c(C)cccc2C)cc1 [Compound 3c, N-(2,6-Dimethylphenyl)-4-methylbenzenesulfonamide]	–
1.98 ± 0.61	1070 ± 820	860 ± 280	Cc1ccc(S(=O)(=O)NCc2ccccc2)cc1 [Compound 3f, N-benzyl-4-methylbenzenesulfonamide]	–
0.484 ± 1.4	520 ± 440	1080 ± 620	Cc1ccc(S(=O)(=O)NNc2ccccc2)cc1 [Compound 3h, 4-Methyl-N′-phenylbenzenesulfonohydrazide]	–
